PubChem BioAssay AID1963446 (Molecular Pharmacology Branch, DTP, NCI, 2024)

Tested on: 993429-296-R-J1-PDC complex spheroid growth, percent test/control
Assay: Anticancer human tumor 993429-296-R-J1-PDC patient-derived uterine sarcoma cell line growth inhibition [Asc]
Conditions: for IC50: curve of first compound; for viability, T/C: stronger effect = lower value
Description: Multicellular complex tumor spheroid response to apoptosis pathway targeting inhibitors Alrizomadlin, Pelcitoclax, and Dasminapant in combination with a variety of drugs and investigational agents in selected tumor cell lines
The MDM2 inhibitor alrizomadlin, the Bcl-2/Bcl-xL inhibitor pelcitoclax, and the IAPs inhibitor dasminapant were evaluated both individually and in combination with standard of care and investigational anticancer small molecules within a complex spheroid model of solid tumors. . Complex spheroids include a stromal component modeled by human endothelial cells (HUVEC) and fibroblasts modeled by human mesenchymal stem cells (MSCs). The concentration ranges selected for each drug and investigational agent were based upon clinically achievable concentrations if the clinical Cmax of the agent was known.
Compounds. The drugs and investigational agents: alrizomadlin (APG-115; NSC831270), pelcitoclax (APG-1252; NSC835773), dasminapant (APG-1387;NSC834197), TAK-243 (NSC785004), copanlisib (NSC809693), olaparib (NSC753686), talazoparib (NSC767125), cobimetinib (NSC 768068), eltanexor (KPT-8602, NSC 794443), abemaciclib (NSC 768073), sotorasib (NSC818433), adagrasib (NSC 831453), MRTX-1133 (NSC 836407), Iadademestat (ORY1001, NSC 806812), and RMC-4630 (NSC839698), were obtained from the NCI Developmental Therapeutics Program Chemical Repository. The FDA-approved anticancer drug set is available from the Developmental Therapeutics Program at https://dtp.cancer.gov/organization/dscb/obtaining/available plates.htm. […] The stock solutions were prepared in dimethyl sulfoxide (DMSO, Sigma-Aldrich, St. Louis, MO, cat. D2650) at 800-fold the tested concentration and stored at -70 degrees C prior to their use. All drugs and investigational agents were tested over a range starting from a high concentration at or near the clinical Cmax and decreasing in half-log increments. If the clinical Cmax for an agent had not been determined, the highest concentration tested was 10 microM.
The patient-derived cancer (PDC) cell lines include five colon adenocarcinomas: 186277-243-T-J2-PDC, 616215-338-R-J1-PDC, 439559-082-T-J2-PDC, 463943-066-T-J2-PDC, and 519858-162-T-J1-PDC; three pancreatic carcinomas: 323965-272-R-J2-PDC, 521955-158-R6-J3-PDC, and 521955-158-R2-J5-PDC; two uterine sarcomas: 327498-152-R-J2-PDC and 993429-296-R-J1-PDC; two rhabdomyosarcomas: 755483-174-R-J1-PDC and 772245-204-R-J1-PDC; two soft tissue sarcomas: 126254-015-R-J1-PDC and 494315-158-R-J1-PDC; two malignant fibrous histiocytomas: 317291-083-R-J1-PDC and 596521-263-R-J1-PDC; two breast carcinomas: 171881-019-R-J1-PDC and 885512-296-R-J2-PDC; and one ovarian carcinoma: 6556581-035-R-J-PDC were obtained from the NCI PDMR, (https://pdmr.cancer.gov). The established cell lines HSSY-2 synovial sarcoma (RRID:CVCL 8719), SYO-1 synovial sarcoma (RRID:CVCL_7146), MPNST malignant peripheral neural sheath tumor were obtained from the Sloan Kettering Institute. The following established cell lines were purchased from the American Type Culture Collection (ATCC, Manassas, VA), Sor the received from the NCI repository:, PANC-1 pancreatic carcinoma (CRL-1469, RRID:CVCL_0480), OVCAR-5 ovarian carcinoma (RRID:CVCL_1628), OVCAR-8 ovarian carcinoma (RRID:CVCL_1629), , MCF-7 breast carcinoma (CRL-12584, RRID:CVCL_0031), MDA-MB-231 breast carcinoma (CRL-12532, RRID:CVCL_0062), NCI-H1876 small cell lung carcinoma (CRL-5902, RRID:CVCL_1503), NCI-H510A small cell lung carcinoma (HTB-184, RRID:CVCL_1565), NCI-H1417 (CRL-5869, RRID:CVCL_1469), and NCI-H196 small cell lung carcinoma (CRL-5823, RRID:CVCL_1509). Dr. Peter Houghton (Greehey Children's Cancer Research Institute, University of Texas Health Science Center, San Antonio, TX) provided Rh-18 rhabdomyosarcoma (RRID:CVCL_1659). Pooled donor human umbilical vein endothelial cells (HUVEC, Lonza, cat. CC-2519) and human mesenchymal stem cells (hMSC, Lonza, cat. PT-2501) were purchased from Lonza (Walkersville, MD).
Cell Culture. […]
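Further: spheroids exposed to compounds for seven days.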

C#Cc1c(F)ccc2cc(O)cc(-c3ncc4c(N5CC6CCC(C5)N6)nc(OCC56CCCN5CC(F)C6)nc4c3F)c12 (stereo not given) + CNC(C)C(=O)NC1CN(S(=O)(=O)c2cccc(S(=O)(=O)N3CCC4CCC(C(=O)NC(c5ccccc5)c5ccccc5)N4C(=O)C(NC(=O)C(C)NC)C3)c2)CCC2CCC(C(=O)NC(c3ccccc3)c3ccccc3)N2C1=O
IC50 (second compound 0.01 µM): 4.7 µM | IC50 (second compound 0.0316 µM): 4.62 µM | IC50 (second compound 0.1 µM): 2.63 µM | IC50 (second compound 0.316 µM): 3.31 µM | IC50 (second compound 1 µM): < 0.0316 µM | viability, T/C (second compound 0.01 µM, first compound 0.0316 µM): 71.7% | viability, T/C (second compound 0.01 µM, first compound 0.1 µM): 67.2% | viability, T/C (second compound 0.01 µM, first compound 0.316 µM): 69.5% | viability, T/C (second compound 0.01 µM, first compound 1 µM): 57.3% | viability, T/C (second compound 0.01 µM, first compound 3.16 µM): 64.3% | viability, T/C (second compound 0.01 µM, first compound 10 µM): 25.6% | viability, T/C (second compound 0.0316 µM, first compound 0.0316 µM): 58.8% | viability, T/C (second compound 0.0316 µM, first compound 0.1 µM): 66.6% | viability, T/C (second compound 0.0316 µM, first compound 0.316 µM): 56.5% | viability, T/C (second compound 0.0316 µM, first compound 1 µM): 67.4% | viability, T/C (second compound 0.0316 µM, first compound 3.16 µM): 60.5% | viability, T/C (second compound 0.0316 µM, first compound 10 µM): 28% | viability, T/C (second compound 0.1 µM, first compound 0.0316 µM): 61% | viability, T/C (second compound 0.1 µM, first compound 0.1 µM): 62.1% | viability, T/C (second compound 0.1 µM, first compound 0.316 µM): 67.1% | viability, T/C (second compound 0.1 µM, first compound 1 µM): 61.7% | viability, T/C (second compound 0.1 µM, first compound 3.16 µM): 47.7% | viability, T/C (second compound 0.1 µM, first compound 10 µM): 28.4% | viability, T/C (second compound 0.316 µM, first compound 0.0316 µM): 45.2% | viability, T/C (second compound 0.316 µM, first compound 0.1 µM): 55.8% | viability, T/C (second compound 0.316 µM, first compound 0.316 µM): 43.3% | viability, T/C (second compound 0.316 µM, first compound 1 µM): 48.8% | viability, T/C (second compound 0.316 µM, first compound 3.16 µM): 64.7% | viability, T/C (second compound 0.316 µM, first compound 10 µM): 16.3% | viability, T/C (second compound 1 µM, first compound 0.0316 µM): 49.9% | viability, T/C (second compound 1 µM, first compound 0.1 µM): 50.2% | viability, T/C (second compound 1 µM, first compound 0.316 µM): 39.5% | viability, T/C (second compound 1 µM, first compound 1 µM): 58% | viability, T/C (second compound 1 µM, first compound 3.16 µM): 50.2% | viability, T/C (second compound 1 µM, first compound 10 µM): 25%
